Laboratory results published in patent US8148385B2, “Substituted [1,2,3] triazolo[4,5-d]pyrimidine derivatives as ADP P2Y12 receptor antagonists” (Janssen Pharmaceutica N.V., priority 2006, dated 2012).

Experiments:
[1] = target: T1, ADP P2Y12 (Homo sapiens, UniProt Q9H244); assay: FLIPR calcium assay transducing Gi-coupled signaling to the Gq pathway (inhibition of calcium mobilization); format: cell-based; conditions: HEK 293 cells co-transfected with P2Y12 and Gqi5, ADP at EC60-70 dose
T1 construct: expressed in transfected cells
T1 sequence (Q9H244 whole entry): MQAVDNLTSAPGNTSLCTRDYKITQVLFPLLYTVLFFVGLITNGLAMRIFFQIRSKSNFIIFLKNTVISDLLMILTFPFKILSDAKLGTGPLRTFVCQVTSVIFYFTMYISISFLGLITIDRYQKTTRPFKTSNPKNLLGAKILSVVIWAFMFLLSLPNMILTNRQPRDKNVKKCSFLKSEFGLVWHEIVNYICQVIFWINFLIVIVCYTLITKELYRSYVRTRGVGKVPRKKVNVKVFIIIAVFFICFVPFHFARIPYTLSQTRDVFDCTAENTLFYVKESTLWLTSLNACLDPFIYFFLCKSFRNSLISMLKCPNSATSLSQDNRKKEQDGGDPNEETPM
Source text: A FLIPR Calcium Assay Transducing Gi-Coupled Signaling to the Gq Pathway
The ADP P2Y12 subtype is a Gi coupled GPCR, which mediates inhibition of adenylate cyclase leading to decreased cAMP while Gq proteins primarily activate phospholipase C, which stimulates inositol-1,4,5-triphosphate (IP3) formation and a subsequent increase in intracellular Ca^2+ concentration, which can be easily measured by FLIPR. Prior to the development of a method to convert a Gi coupled GPCR signaling to a Gq coupled GPCR signaling, a significant barrier existed for the functional testing and screening of Gi coupled GPCRs. One popular method, GTPγS migration, is slow, produces a small signal and generates radioactive waste. The discovery that a small switch in the amino acid sequence in the Gi protein could convert it to a protein mediating a Gq coupled response has led to the development of robust, high throughput assays for this valuable receptor subtype.
The FLIPR-based HTS assay transducing the Gi signaling to the Gq pathway is described below.
pcDNA3hygroP2Y12 containing a hygromycin resistance gene and pLEC1-Gqi5-HA containing a neomycin resistance gene (licensed from Molecular Devices, Sunnyvale, Calif.) were co-transfected into Human embryonic kidney (HEK) 293 cells with SuperFect (Qiagen, Valencia, Calif.). Cell clones were selected in the presence of 600 μg/ml hygromycin B (Life Technologies, Carlsbad, Calif.) and 1 mg/ml of G418 (Mediatech, Herndon, Va.). Drug resistant colonies were picked and screened by FLIPR and the gene expression was further confirmed by RT-PCR. Positive clones were maintained in growth medium (DMEM supplemented with 10% FBS, 1×p/s) containing 400 μg/ml of G418 and 200 μg/ml of hygromycin.
The day before the assay, cells are seeded in clear, flat-bottom black-wall, tissue culture treated polystyrene 96- or 384-well plates and incubated at 37° C., 5% CO2. 50 μl of complete dye loading solution (FLIPR Calcium Assay Kit, Molecular Devices) was added to each well containing 100 μl of culture media. The cells were incubated for at least 30 min at 37° C., in 5% CO2 before initiating the assay on the FLIPR. The agonist effect of ADP was tested and EC50 was determined prior to compound testing. The EC60-70 dose was used.
The antagonist compounds were prepared at 4× and the agonists were diluted at 5× the concentration desired in the test wells, and then aliquoted into the sample plates. The sample plates and the cell plate were placed in the FLIPR assay chamber. A first addition (50 μl) was made at the start of reading and a second addition (50 μl) was made after 5 min of reading. Raw fluorescence data was exported for each well and tabulated versus time within an ASCII file. Data was then imported into Excel and the peak response over the basal level was determined. The percent inhibition for each compound was calculated by the change in fluorescent density as a % inhibition of the control ADP response to obtain an IC50, as shown in Table 1 (wherein N/A means Not Applicable).

[2] = target: T2, P2Y12 receptor (Homo sapiens, UniProt Q9H244); assay: Whole cell receptor binding assay for 2-MeS[3H]-ADP; conditions: whole HEK 293 cells transfected with P2Y12; 2-MeS[3H]-ADP 3 nM; 30 min at 37° C.; read-out: Inhibition of Receptor Binding IC50
T2 construct: expressed in transfected cells
T2 sequence (Q9H244 whole entry): as above
Method: A whole cell-binding assay for 2-MeS [^3H]-ADP (Custom synthesized by Amersham BioScience, Piscataway, N.J.) to the P2Y12 receptor was performed.
A P2Y12 cDNA containing hygromycin resistant gene was transfected in HEK 293 cells. A stable cell line was obtained by a cloning selection method. The cells were cultured in DMEM supplemented with 10% FBS and 1× of p/s.
On the day of the assay, the cells were harvested and resuspended in 0.25% BSA-DMEM and adjusted to a cell concentration of 1.6×10^6/ml. […] The reaction was then incubated for 30 min at 37° C. and stopped by adding cold DMEM. […] The plates were dyed in a 37° C. oven for 1-2 hours and 50 μl of MicroScint-20 (PerkinElmer) was added to each well. The radioactivity was measured using a TOPCOUNT beta counter (Packard).

[3] = system: washed platelets; assay: In vitro platelet aggregation; format: cell-based; conditions: Homo sapiens, washed platelets from healthy volunteers, agonist (ADP) at 60-70% aggregation, % inhibition of control ADP response
Method: Platelet aggregation studies were performed according to a published method (Bednar, B., Condra, C., Gould, R. J., and Connolly, T. M., Throm. Res., 77:453-463 (1995). Platelet-rich plasma (PRP) concentrates prepared from healthy volunteers who were aspirin free for at least 7 days by venipuncture using ACD-A as anticoagulant was purchased from Biological Specialties, Inc. (Colmar, Pa.). PRP was centrifuged at 730 g for 15 min. The platelet pellet was washed twice in CGS buffer (13 mM sodium citrate, 30 mM glucose, 120 mM NaCl, pH 6.5) containing 1 μ/ml apyrase (grade V, Sigma-Aldrich, St. Louis, Mo.), 1 mM EGTA, and resuspended in Tyrode's buffer (140 mM NaCl, 2.7 mM KCl, 12 mM NaHCO3, 0.76 mM Na2HPO4, 5.5 mM dextrose, 5.0 mM Hepes, 0.2% BSA, pH 7.4). The platelets were diluted to 3×10^8 platelets/ml and kept >45 min at 37° C. before use. 105 μl of washed platelets, 2 mM CaCl2 and […] of fibrinogen were added to a 96-well microliter plate.
Platelet aggregation was initiated by the addition of serial concentrations of ADP (BioData Corp. Horsham, Pa.). Buffer was added to one set of control wells. The assay plate was stirred constantly and intermittently placed in a microplate reader (Softmax, Molecular Devices, Menlo Park, Calif.) to read optical density (650 nm) at 0 and 5 minutes after the addition of the compound solutions. Aggregation was calculated as the decrease in optical density between the time 0- and 5-min measurements and expressed as % of aggregation. For the inhibition assay, platelet aggregation was conducted as described above except for compound additions. Test compounds were prepared in 100% DMSO and stored.
On the day of the assay, test compounds were diluted in the buffer containing 3% of DMSO as a 10× working solution. 15 μl of compound solutions were added to 105 μl of platelets 5 min prior to the addition of CaCl2 and fibrinogen.

Structure (SMILES)	IC50 [1]	IC50 [2]	IC50 [3]
CCCSc1nc(NC[C@H]2CCCO2)c2nnn([C@@H]3C=C[C@H](O)[C@@H](O)[C@H]3O)c2n1 [Cpd 2, (1S,2R,3S,6R)-6-(5-propylsulfanyl-7-{[(2R)-tetrahydro-furan-2-ylmethyl]-amino}-[1,2,3]triazolo[4,5-d]pyrimidin-3-yl)-cyclohex-4-ene-1,2,3-triol]	> 30 µM		
CCCSc1nc(NC[C@@H]2CCCO2)c2nnn([C@@H]3C=C[C@H](O)[C@@H](O)[C@H]3O)c2n1 [Cpd 3, (1S,2R,3S,6R)-6-(5-propylsulfanyl-7-{[(2S)-tetrahydro-furan-2-ylmethyl]-amino}-[1,2,3]triazolo[4,5-d]pyrimidin-3-yl)-cyclohex-4-ene-1,2,3-triol]	> 30 µM	4.75 µM	
CCCSc1nc(NCc2ccco2)c2nnn([C@@H]3C=C[C@H](O)[C@@H](O)[C@H]3O)c2n1 [Cpd 4, (1S,2R,3S,4R)-6-{7-[(furan-2-ylmethyl)-amino]-5-propylsulfanyl-[1,2,3]triazolo[4,5-d]pyrimidin-3-yl}-cyclohex-4-ene-1,2,3-triol]	> 30 µM		
CCCSc1nc(NCC2CCCN2CC)c2nnn([C@@H]3C=C[C@H](O)[C@@H](O)[C@H]3O)c2n1 (stereo partly drawn) [Cpd 6, (1S,2R,3S,4R)-6-{7-[(1-ethyl-pyrrolidin-2-ylmethyl)-amino]-5-propylsulfanyl-[1,2,3]triazolo[4,5-d]pyrimidin-3-yl}-cyclohex-4-ene-1,2,3-triol]	> 30 µM		
CCCSc1nc(NCCc2cccs2)c2nnn([C@@H]3C=C[C@H](O)[C@@H](O)[C@H]3O)c2n1 [Cpd 7, (1S,2R,3S,4R)-6-[5-propylsulfanyl-7-(2-thiophen-2-yl-ethylamino)-[1,2,3]triazolo[4,5-d]pyrimidin-3-yl]-cyclohex-4-ene-1,2,3-triol]	14.7 µM	2.27 µM	
CCCSc1nc(NCc2cccn2C)c2nnn([C@@H]3C=C[C@H](O)[C@@H](O)[C@H]3O)c2n1 [Cpd 8, (1S,2R,3S,6R)-6-{7-[(1-methyl-1H-pyrrol-2-ylmethyl)-amino]-5-propylsulfanyl-[1,2,3]triazolo[4,5-d]pyrimidin-3-yl}-cyclohex-4-ene-1,2,3-triol]	> 30 µM		
CCCSc1nc(NC[C@@H]2CCCO2)c2nnn([C@@H]3CC[C@H](O)[C@@H](O)[C@H]3O)c2n1 [Cpd 16, (1S,2R,3S,4R)-4-(5-propylsulfanyl-7-{[(2S)-tetrahydro-furan-2-ylmethyl]-amino}-[1,2,3]triazolo[4,5-d]pyrimidin-3-yl)-cyclohexane-1,2,3-triol]	> 30 µM		
CCCSc1nc(NC[C@H]2CCCO2)c2nnn([C@@H]3CC[C@H](O)[C@@H](O)[C@H]3O)c2n1 [Cpd 17, (1S,2R,3S,4R)-4-(5-propylsulfanyl-7-{[(2R)-tetrahydro-furan-2-ylmethyl]-amino}-[1,2,3]triazolo[4,5-d]pyrimidin-3-yl)-cyclohexane-1,2,3-triol]	> 30 µM		> 30 µM
CCCCNc1nc(SCCC)nc2c1nnn2[C@@H]1CC[C@H](O)[C@@H](O)[C@H]1O [Cpd 19, (1S,2R,3S,4R)-4-(7-butylamino-5-propylsulfanyl-[1,2,3]triazolo[4,5-d]pyrimidin-3-yl)-cyclohexane-1,2,3-triol]	2.93 µM		
CCCSc1nc(NCCc2cccs2)c2nnn([C@@H]3CC[C@H](O)[C@@H](O)[C@H]3O)c2n1 [Cpd 20, (1S,2R,3S,4R)-4-[5-propylsulfanyl-7-(2-thiophen-2-yl-ethylamino)-[1,2,3]triazolo[4,5-d]pyrimidin-3-yl]-cyclohexane-1,2,3-triol]	> 30 µM		

Second part, led by results:

IC50 [1]	IC50 [2]	Structure (SMILES)	IC50 [3]
> 30 µM		CCCSc1nc(N[C@@H]2C[C@H]2c2ccccc2)c2nnn([C@@H]3C=C[C@H](O)[C@H]4OC(C)(C)O[C@H]43)c2n1 (mixture of isomers) [Cpd 10, (3aR,4S,7R,7aS)-2,2-dimethyl-7-{7-[(1RS,2SR)-2-phenyl-cyclopropylamino]-5-propylsulfanyl-[1,2,3]triazolo[4,5-d]pyrimidin-3-yl}-3a,4,7,7a-tetrahydro-benzo[1,3]dioxol-4-ol]	
> 30 µM	8.56 µM	CCCSc1nc(N[C@@H]2C[C@H]2c2ccccc2)c2nnn([C@@H]3C=C[C@H](OCCO)[C@@H](O)[C@H]3O)c2n1 (mixture of isomers) [Cpd 13, (1S,2S,3S,6R)-3-(2-hydroxy-ethoxy)-6-{7-[(1RS,2SR)-2-phenyl-cyclopropylamino]-5-propylsulfanyl-[1,2,3]triazolo[4,5-d]pyrimidin-3-yl}-cyclohex-4-ene-1,2-diol]	
2.63 µM	6.6 µM	CCCSc1nc(N[C@@H]2C[C@H]2c2ccccc2)c2nnn([C@@H]3CC[C@H](OCCO)[C@@H](O)[C@H]3O)c2n1 (mixture of isomers) [Cpd 15, (1S,2S,3S,6R)-3-(2-hydroxy-ethoxy)-6-{7-[(1RS,2SR)-2-phenyl-cyclopropylamino]-5-propylsulfanyl-[1,2,3]triazolo[4,5-d]pyrimidin-3-yl}-cyclohexane-1,2-diol]	
6.9 µM	2.2 µM	CCCSc1nc(N[C@@H]2C[C@H]2c2ccccc2)c2nnn(C3[C@@H](O)[C@@H](O)C(OCCO)[C@@H](O)[C@H]3O)c2n1 (mixture of isomers) [Cpd 12, (1R,2R,4S,5S)-3-(2-hydroxy-ethoxy)-6-{7-[(1RS,2SR)-2-phenyl-cyclopropylamino]-5-propylsulfanyl-[1,2,3]triazolo[4,5-d]pyrimidin-3-yl}-cyclohexane-1,2,4,5-tetraol]	
> 30 µM		CCCSc1nc(NCc2ccco2)c2nnn([C@@H]3CC[C@H](O)[C@@H](O)[C@H]3O)c2n1 [Cpd 18, (1S,2R,3S,4R)-4-{7-[(furan-2-ylmethyl)-amino]-5-propylsulfanyl-[1,2,3]triazolo[4,5-d]pyrimidin-3-yl}-cyclohexane-1,2,3-triol]	
> 30 µM		CCCSc1nc(N[C@@H]2CCN(Cc3ccccc3)C2)c2nnn([C@@H]3CC[C@H](O)[C@@H](O)[C@H]3O)c2n1 [Cpd 22, (1S,2R,3S,4R)-4-{7-[(3R)-1-benzyl-pyrrolidin-3-ylamino]-5-propylsulfanyl-[1,2,3]triazolo[4,5-d]pyrimidin-3-yl}-cyclohexane-1,2,3-triol]	
